Consider one compound from article PMC6934184, “Selective DNA-PKcs inhibition extends the therapeutic index of localized radiotherapy and chemotherapy” (The Journal of Clinical Investigation, 2019).

For this experiment, the target named is T1, KIT Y823D (Homo sapiens, UniProt P10721, Y823D).
T1 construct: purchased Thermo Fisher Scientific (Life Technologies) SelectScreen
Kind of experiment: SelectScreen LanthaScreen. Conditions: read-out: % displacement. It is filed as binding. An outline of the steps: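 Percent values come from Thermo SelectScreen profiling of NU5455, combining activity and binding assays. CSF1R was run in Z'LYTE format at Km app ATP, and CAMK1 in Adapta format with ATP listed at 10.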
A general note: Time-resolved FRET reads energy transfer from a long-lived donor to a nearby acceptor.

T1 sequence (P10721 26-976 Y823D): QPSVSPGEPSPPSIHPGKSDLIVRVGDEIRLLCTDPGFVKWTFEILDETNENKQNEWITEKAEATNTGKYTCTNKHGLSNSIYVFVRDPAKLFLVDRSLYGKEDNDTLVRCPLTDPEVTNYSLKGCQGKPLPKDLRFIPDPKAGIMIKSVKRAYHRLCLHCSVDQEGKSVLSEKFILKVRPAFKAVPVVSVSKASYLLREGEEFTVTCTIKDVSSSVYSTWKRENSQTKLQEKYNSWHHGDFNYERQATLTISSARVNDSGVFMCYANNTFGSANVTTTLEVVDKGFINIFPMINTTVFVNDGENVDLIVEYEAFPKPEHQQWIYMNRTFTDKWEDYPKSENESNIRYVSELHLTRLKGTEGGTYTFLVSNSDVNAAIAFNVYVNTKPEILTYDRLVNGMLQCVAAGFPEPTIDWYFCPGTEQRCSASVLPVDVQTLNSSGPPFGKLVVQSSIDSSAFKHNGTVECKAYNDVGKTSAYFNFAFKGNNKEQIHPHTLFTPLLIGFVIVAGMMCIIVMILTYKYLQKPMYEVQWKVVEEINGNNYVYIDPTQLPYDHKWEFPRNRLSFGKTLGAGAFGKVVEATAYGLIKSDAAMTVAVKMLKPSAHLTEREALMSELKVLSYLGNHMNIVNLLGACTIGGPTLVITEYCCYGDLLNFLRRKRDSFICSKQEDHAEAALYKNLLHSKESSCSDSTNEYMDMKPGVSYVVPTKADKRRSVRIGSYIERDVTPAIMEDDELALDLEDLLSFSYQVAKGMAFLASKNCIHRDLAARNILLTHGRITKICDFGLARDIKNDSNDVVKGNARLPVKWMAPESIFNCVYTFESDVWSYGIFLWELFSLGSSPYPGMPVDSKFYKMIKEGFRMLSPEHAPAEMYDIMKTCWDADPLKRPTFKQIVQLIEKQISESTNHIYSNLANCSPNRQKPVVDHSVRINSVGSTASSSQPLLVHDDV

As for `CN(C(=O)CN1CCOCC1)c1ccc2sc3c(-c4cccc5c(=O)cc(N6CC7CCC(C6)O7)oc45)cccc3c2c1` [NU5455], the inhibition at 1 µM amounted to 5.6%.
